Values of other authors, collected in publication PMC9409351, “Differential Ganglioside and Cholesterol Depletion by Various Cyclodextrin Derivatives and Their Effect on Synaptosomal Glutamate Release” (International Journal of Molecular Sciences, 2022).

Assays:
[1] = system: cell model of GM1 gangliosidosis; parameters: method as in doi:10.1007/s10847-018-0835-8; settings: immunofluorescence staining; cited from earlier work
[2] = system: cerebellar granule cells; parameters: method as in PMID 12897192; settings: in addition to cholesterol extraction; cited from earlier work

Compound | Lysosomal accumulation of GM1 [1] | Sphingomyelin and GSL levels after treatment [2]
COCC1OC2OC3C(COC)OC(OC4C(COC)OC(OC5C(COC)OC(OC6C(COC)OC(OC7C(COC)OC(OC1C(O)C2OC)C(OC)C7O)C(OC)C6O)C(OC)C5O)C(OC)C4O)C(OC)C3O (stereo not drawn) [DIMEA, hexakis(2,6-di-O-methyl)-alpha-cyclodextrin] | reduced lysosomal accumulation of GM1 | 
methylated beta-cyclodextrins [MBCD] |  | reduction in the sphingomyelin and GSL levels
